From patent US6432969B1, “N-(substituted glycyl)-2 cyanopyrrolidines, pharmaceutical compositions containing them and their use in inhibiting dipeptidyl peptidase-IV” (Novartis AG, priority 2000, dated 2002)
Counter-ions that a name gives are not always drawn.

melting point [°C] | SMILES
270 to 273 | N#C[C@@H]1CCCN1C(=O)CNC1CCC(Nc2ccc(C(F)(F)F)cn2)CC1 (some centres unmarked) (as salt: hydrochloride)
75 to 77 | N#C[C@@H]1CCCN1C(=O)CN[C@H]1CC[C@H](NS(=O)(=O)c2cccs2)CC1 (as salt: hydrochloride) [Ex. 2AA]
225 to 227 | CC(C)(CNC(=O)C(C)(C)C)NCC(=O)N1CCC[C@H]1C#N (as salt: hydrochloride) [Ex. 2H, 1-[[[2-[(2,2-dimethyl-1-oxopropyl)amino]-1,1-dimethylethyl]amino]acetyl]-2-cyano-(S)-pyrrolidine]
82 to 84 | CC(C)N(C(=O)N1CCC(NCC(=O)N2CCC[C@H]2C#N)CC1)C(C)C (as salt: hydrochloride) [Ex. 2JJ, 1-[[[1-[(diisopropylamino)carbonyl]-4-piperidinyl]amino]acetyl]-2-cyano-(S)-pyrrolidine]
242 to 244 | N#Cc1ccc(NC2CCC(NCC(=O)N3CCC[C@H]3C#N)CC2)nc1 (stereo partly drawn) (as salt: hydrochloride) [Ex. 2L, 1-[[[4-[(5-cyano-2-pyridinyl)amino]cyclohexyl]amino]acetyl]-2-cyano-(S)-pyrrolidine]
120 to 122 | N#C[C@@H]1CCCN1C(=O)CNC1CCC(NS(=O)(=O)c2ccccc2)CC1 (stereo partly drawn) (as salt: hydrochloride) [Ex. 2M, 1-[[[4-[(phenylsulfonyl)amino]cyclohexyl]amino]acetyl]-2-cyano-(S)-pyrrolidine]
289 to 292 | N#C[C@@H]1CCCN1C(=O)CN[C@H]1CC[C@H](Nc2ncccc2C(F)(F)F)CC1 (as salt: hydrochloride) [Ex. 2P, 1-[[4-[[(3-trifluoromethyl-2-pyridinyl)amino]cyclohexyl]amino]acetyl]-2-cyano-(S)-pyrrolidine]
160 to 162 | N#C[C@@H]1CCCN1C(=O)CN[C@H]1CC[C@H](NS(=O)(=O)c2ccc(Cl)cc2)CC1 (as salt: hydrochloride) [Ex. 2Q, 1-[[[[4-[(4-chlorophenyl)sulfonyl]amino]cyclohexyl]amino]acetyl]-2-cyano-(S)-pyrrolidine]
290 to 293 | N#C[C@@H]1CCCN1C(=O)CNC1CCC(Nc2ccnc(Cl)n2)CC1 (stereo partly drawn) (as salt: hydrochloride) [Ex. 2S, 1-[[[4-[(2-chloro-4-pyrimidinyl)amino]cyclohexyl]amino]acetyl]-2-cyano-(S)-pyrrolidine]
260 to 263 | N#C[C@@H]1CCCN1C(=O)CN[C@H]1CC[C@H](NC(=O)c2ccc(Cl)cc2)CC1 (as salt: hydrochloride) [Ex. 2T, 1-[[[4-[(4-chlorobenzoyl)amino]cyclohexyl]amino]acetyl]-2-cyano-, (S)-pyrrolidine]
290 to 294 | CC(C)(C)C(=O)NC1CCC(NCC(=O)N2CCC[C@H]2C#N)CC1 (stereo partly drawn) (as salt: hydrochloride) [Ex. 2U, 1-[[[4-[(2,2-dimethyl-1-oxopropyl)amino]cyclohexyl]amino]acetyl]-2-cyano-(S)-pyrrolidine]
246 to 248 | N#C[C@@H]1CCCN1C(=O)CNC1CCC(Nc2nc3ccccc3s2)CC1 (stereo partly drawn) (as salt: hydrochloride) [Ex. 2V, 1-[[[4-[(2-benzothiazolyl)amino]cyclohexyl]amino]acetyl]-2-cyano-(S)-pyrrolidine]
165 to 167 | N#Cc1ccc(NC2CCC(NCC(=O)N3CCC[C@H]3C#N)CC2)cc1 (stereo partly drawn) (as salt: hydrochloride) [Ex. 2W, 1-[[[4-[(4-cyanophenyl)amino]cyclohexyl]amino]acetyl]-2-cyano-(S)-pyrrolidine]
189 to 190 | N#C[C@@H]1CCCN1C(=O)CNC1CCC(NC(=O)C2CCCCC2)CC1 (stereo partly drawn) (as salt: hydrochloride) [Ex. 2X, 1-[[[4-[(cyclohexylcarbonyl)amino]cyclohexyl]amino]acetyl]-2-cyano-(S)-pyrrolidine]
290 to 294 | N#C[C@@H]1CCCN1C(=O)CNC1CCC(Nc2nc3cc(Cl)ccc3s2)CC1 (stereo partly drawn) (as salt: hydrochloride) [Ex. 2Y, 1-[[[4-[(5-chloro-2-benzothiazolyl)amino]cyclohexyl]amino]acetyl]-2-cyano-(S)-pyrrolidine]
135 to 137 | N#C[C@@H]1CCCN1C(=O)CN[C@H]1CC[C@H](NS(=O)(=O)c2ccc(C(F)(F)F)cc2)CC1 (as salt: hydrochloride) [Ex. 2Z, 1-[[[4-[[[(4-trifluoromethyl)phenyl]sulfonyl]amino]cyclohexyl]amino]acetyl]-2-cyano-(S)-pyrrolidine]
> 300 | N#C[C@@H]1CCCN1C(=O)CNC1CCN(C(=O)C2CCCCC2)CC1 (as salt: hydrochloride) [Ex. 4A, 1-[[[1-(cyclohexylcarbonyl)-4-piperidinyl]amino]acetyl]-2-cyano-(S)-pyrrolidine]
78 to 80 | N#C[C@@H]1CCCN1C(=O)CNC1CCC(NC(=O)c2ccccc2)CC1 (stereo partly drawn) [Ex. 2N, 1-[[[4-(benzoylamino)cyclohexyl]amino]acetyl]-2-cyano-(S)-pyrrolidine]

Further lines, the compound ahead of its results:

SMILES | melting point [°C]
CC(C)(CNc1ccc(C(F)(F)F)cn1)NCC(=O)N1CCC[C@H]1C#N (as salt: hydrochloride) [Ex. 2B, 1-[[[2-[(5-trifluoromethyl-2-pyridinyl)amino]-1,1-dimethylethyl]amino]acetyl]-2-cyano-(S)-pyrrolidine] | 170 to 172
CC(C)(Cc1ccc(F)cc1)NCC(=O)N1CCC[C@H]1C#N (as salt: hydrochloride) [Ex. 2BB] | 198 to 200
CC(C)(Cc1ccccc1)NCC(=O)N1CCC[C@H]1C#N (as salt: hydrochloride) [Ex. 2CC, 1-[[(1,1-dimethyl-2-phenylethyl)amino]acetyl]-2-cyano-(S)-pyrrolidine] | 212 to 214
CC(C)(CNc1ncccc1Cl)NCC(=O)N1CCC[C@H]1C#N (as salt: hydrochloride) [Ex. 2D, 1-[[[2-[(3-chloro-2-pyridinyl)amino]-1,1-dimethylethyl]amino]acetyl]-2-cyano-(S)-pyrrolidine] | 144 to 146
CCCCCC12CCC(NCC(=O)N3CCC[C@H]3C#N)(CC1)CC2 (as salt: hydrochloride) [Ex. 2DD, 1-[[(4-pentylbicyclo[2.2.2]oct-1-yl)amino]acetyl]-2-cyano-(S)-pyrrolidine] | 99 to 102
CC(C)(CNc1ncc(Cl)cc1Cl)NCC(=O)N1CCC[C@H]1C#N (as salt: hydrochloride) [Ex. 2F, 1-[[[2-[(3,5-dichloro-2-pyridinyl)amino]-1,1-dimethylethyl]amino]acetyl]-2-cyano-(S)-pyrrolidine] | 108 to 110
N#CC1CCCN1C(=O)CNC1CCC(Oc2ccc(Cl)cc2)CC1 (as salt: hydrochloride) [Ex. 2FF, 1-[[4-[4-chlorophenoxy)cyclohexyl]amino]acetyl]-2-cyano-(S)-pyrrolidine] | 232 to 235
CC(C)(CNc1ncccc1C(F)(F)F)NCC(=O)N1CCC[C@H]1C#N (as salt: hydrochloride) [Ex. 2G, 1-[[[2-[(3-trifluoromethyl-2-pyridinyl)amino]-1,1-dimethylethyl]amino]acetyl]-2-cyano-(S)-pyrrolidine] | 112 to 114
N#C[C@@H]1CCCN1C(=O)CN[C@H]1CC[C@H](Oc2cccc(C(F)(F)F)c2)CC1 (as salt: hydrochloride) [Ex. 2GG, 1-[[[4-[(3-trifluoromethyl)phenoxy]cyclohexyl]amino]acetyl]-2-cyano-(S)-pyrrolidine] | 120 to 122
N#C[C@@H]1CCCN1C(=O)CN[C@H]1CC[C@H](Oc2cccc(Cl)c2)CC1 (as salt: hydrochloride) [Ex. 2HH] | 72 to 74
CC(C)(CNC(=O)c1ccc(Cl)cc1)NCC(=O)N1CCC[C@H]1C#N (as salt: hydrochloride) [Ex. 2I, 1-[[[2-[(4-chlorobenzoyl)amino]-1,1-dimethylethyl]amino]acetyl]-2-cyano-(S)-pyrrolidine] | 121 to 123
N#C[C@@H]1CCCN1C(=O)CNC1CCN(C(=O)Nc2ccc(Cl)cc2)CC1 (as salt: hydrochloride) [Ex. 2II, 1-[[[1-[[(4-chlorophenyl)amino]carbonyl]-4-piperidinyl]amino]acetyl]-2-cyano-(S)-pyrrolidine] | 172 to 174
CC(C)N(C(=O)NCC(C)(C)NCC(=O)N1CCC[C@H]1C#N)C(C)C (as salt: hydrochloride) [Ex. 2J, 1-[[[2-[[(diisopropylamino)carbonyl]amino]-1,1-dimethylethyl]amino]acetyl]-2-cyano-(S)-pyrrolidine] | 128 to 130
CC(C)(CNC(=O)Nc1ccc(Cl)cc1)NCC(=O)N1CCC[C@H]1C#N (as salt: hydrochloride) [Ex. 2K, 1-[[[2-[[[(4-chlorophenyl)amino]carbonyl]amino]-1,1-dimethylethyl]amino]acetyl]-2-cyano-(S)-pyrrolidine] | 112 to 114
N#C[C@@H]1CCCN1C(=O)CNC1CCN(c2nc(-c3ccc(Cl)cc3)cs2)CC1 (as salt: hydrochloride) [Ex. 2LL] | 160 to 162
COc1ccc(-c2csc(N3CCC(NCC(=O)N4CCC[C@H]4C#N)CC3)n2)cc1 (as salt: hydrochloride) [Ex. 2MM] | 154 to 156
N#C[C@@H]1CCCN1C(=O)CNC1CCN(C(=O)c2ccc(Cl)cc2)CC1 (as salt: hydrochloride) [Ex. 4B] | 152 to 155
N#C[C@@H]1CCCN1C(=O)CNC1CCN(S(=O)(=O)c2ccc(C(F)(F)F)cc2)CC1 (as salt: hydrochloride) [Ex. 4C] | > 300
N#C[C@@H]1CCCN1C(=O)CNC1CCN(S(=O)(=O)c2ccccc2)CC1 (as salt: hydrochloride) [Ex. 4D, 1-[[(1-phenylsulfonyl-4-piperidinyl)amino]acetyl]-2-cyano-(S)-pyrrolidine] | > 300
CC(C)(CNc1ccc(C#N)cn1)NCC(=O)N1CCC[C@H]1C#N [Ex. 2A, 1-[[[2-[(5-cyano-2-pyridinyl)amino]-1,1-dimethylethyl]amino]acetyl]-2-cyano-(S)-pyrrolidine] | 47 to 49
